Data on one compound can be found in patent publication US10828315B2 (Madrigal Pharmaceuticals, Inc., priority 2013, dated 2020).

In brackets after ≈: the same amount, converted by molar mass. Entries after “also recorded” stand apart in the source; their conditions may differ. Like-named read-outs stand apart in the source and are kept apart here.

In data set [1] the test system is HER2. The data set can be described thus: HER2 degradation assay with BT-474 cell line (Example 12, FACS). In kind it is cell-based, human.
Data set [2] has as its system H2AX phosphorylation, HSP70, EGFR, MET. The data set can be described thus: Pharmacodynamics in CRC (HCT-116) xenograft tumors. In kind it is in vivo, mouse.
For data set [3] the following is noted: mouse, in vivo; for Tumor Conc.: female, SCID.
Data set [4] can be described thus: Solubility of SDC-TRAP-0063 (ganetespib placebo formulation, PEG-300). In kind it is physicochemical. The note with it: PEG-300, organic solvent or mixture, thermodynamic from solid; Lot 8; estimated; read-out: equilibrium solubility in PEG-300.

Compound `CCc1c2c(nc3ccc(OC(=O)N4CCC(CCn5ccc6cc(-n7c(O)nnc7-c7cc(C(C)C)c(O)cc7O)ccc65)CC4)cc13)-c1cc3c(c(=O)n1C2)COC(=O)[C@]3(O)CC` [SDC-TRAP-0063, 4,11-diethyl-4-hydroxy-3,14-dioxo-3,4,12,14-tetrahydro-1H-pyrano[3′,4′:6,7]indolizino[1,2-b]quinolin-9-yl 4-(2-(5-(3-(2,4-dihydroxy-5-isopropylphenyl)-5-hydroxy-4H-1,2,4-triazol-4-yl)-1H-indol-1-yl)ethyl)piperidine-1-carboxylate] came in with a concentration for half-maximal inhibition (IC50) in data set [1] of 793 nM. Also, the H2AX phosphorylation entry in data set [2] (HCT-116 tumors, 24 hr) is reported as “stimulate H2AX phosphorylation at 24 hr”. For the same compound, in data set [2] (HCT-116 tumors, 24 hr exposure), the “HSP70 and Hsp90 client protein (EGFR, MET) expression” value is “induces HSP70 comparable to irinotecan but much less than ganetespib; also recorded: lack of effects on EGFR and MET stability”. The “Hsp90 inhibition (conclusion from PD)” value in data set [2] (HCT-116 xenograft tumors) is “weak Hsp90 inhibitor”. The “kinetics of H2AX phosphorylation” value in data set [2] (HCT-116 xenograft tumors) is “beginning at 8 hr and leveling off at 24 hr”. The “Tumor Conc.” value was 1.61 nmol/g of tissue in data set [3] (6 h), 0.203 nmol/g of tissue in data set [3] (24 h), 0.0188 nmol/g of tissue in data set [3] (48 h) and 6.43 nmol/g of tissue in data set [3] ([…]). Moreover, the “Plasma Conc.” value in data set [3] is listed as “BQL”. Further, the “tumor targeting (tissue distribution in plasma, tumor and heart)” value in data set [3] (iv, 50 mg/kg) was “selectively targets and accumulates in tumor cells”. Further, the solubility thermodynamic in data set [4] was approximately 44 mg/mL (≈ 50 mM).
